Data reported in BigSolDB 2.1.

CC1(C)COP(=O)(C(C)(O)c2ccccc2)OC1 (configuration not stated)
Conditions | solubility (mole fraction)
in 1,2-dichloroethane, 278.35 K | 0.00107
in 1,2-dichloroethane, 283.25 K | 0.00117
in 1,2-dichloroethane, 288.45 K | 0.00154
in 1,2-dichloroethane, 293.35 K | 0.00171
in 1,2-dichloroethane, 298.25 K | 0.00218
in 1,2-dichloroethane, 303.15 K | 0.00258
in 1,2-dichloroethane, 308.25 K | 0.00291
in 1,2-dichloroethane, 313.15 K | 0.00359
in 1,2-dichloroethane, 318.05 K | 0.00454
in 1,2-dichloroethane, 322.95 K | 0.00542
in 1,2-dichloroethane, 328.15 K | 0.00651
in 1,2-dichloroethane, 333.25 K | 0.00803
in 1,2-dichloroethane, 338.15 K | 0.00933
in acetone, 278.15 K | 0.00106
in acetone, 283.25 K | 0.00132
in acetone, 288.45 K | 0.0018
in acetone, 293.25 K | 0.0023
in acetone, 298.35 K | 0.0031
in acetone, 303.35 K | 0.00363
in acetone, 308.15 K | 0.00469
in acetone, 313.25 K | 0.00547
in acetone, 318.05 K | 0.00593
in acetone, 323.15 K | 0.00616
in acetonitrile, 283.25 K | 0.00144
in acetonitrile, 288.45 K | 0.00169
in acetonitrile, 293.35 K | 0.00198
in acetonitrile, 298.25 K | 0.00221
in acetonitrile, 303.25 K | 0.00268
in acetonitrile, 308.15 K | 0.00342
in acetonitrile, 313.35 K | 0.00392
in acetonitrile, 318.15 K | 0.0046
in acetonitrile, 323.05 K | 0.00562
in acetonitrile, 327.95 K | 0.00654
in acetonitrile, 333.05 K | 0.00866
in chloroform, 278.25 K | 0.0048
in chloroform, 283.35 K | 0.00547
in chloroform, 288.15 K | 0.00651
in chloroform, 293.05 K | 0.00768
in chloroform, 298.45 K | 0.00866
in chloroform, 303.35 K | 0.00944
in chloroform, 308.15 K | 0.0111
in chloroform, 313.05 K | 0.0128
in chloroform, 317.95 K | 0.0154
in chloroform, 323.15 K | 0.0188
in ethanol, 278.45 K | 0.00558
in ethanol, 283.25 K | 0.00618
in ethanol, 288.15 K | 0.0068
in ethanol, 293.25 K | 0.00786
in ethanol, 298.35 K | 0.00933
in ethanol, 303.05 K | 0.0106
in ethanol, 307.95 K | 0.0125
in ethanol, 313.05 K | 0.014
in ethanol, 318.15 K | 0.0169
in ethanol, 323.05 K | 0.0195
in ethanol, 327.95 K | 0.0239
in ethanol, 333.15 K | 0.0293
in ethanol, 338.05 K | 0.0327
in ethanol, 343.15 K | 0.0374
in ethyl acetate, 297.95 K | 0.00054
in ethyl acetate, 303.35 K | 0.00092
in ethyl acetate, 308.45 K | 0.00131
in ethyl acetate, 313.15 K | 0.00166
in ethyl acetate, 318.05 K | 0.00221
in ethyl acetate, 323.05 K | 0.0024
in ethyl acetate, 328.35 K | 0.00283
in ethyl acetate, 333.25 K | 0.00307
in ethyl acetate, 338.15 K | 0.00336
in ethyl acetate, 342.95 K | 0.0036
in methanol, 283.35 K | 0.0112
in methanol, 288.15 K | 0.0132
in methanol, 293.25 K | 0.0146
in methanol, 298.31 K | 0.0168
in methanol, 303.15 K | 0.0196
in methanol, 307.95 K | 0.0223
in methanol, 313.05 K | 0.0259
in methanol, 317.95 K | 0.0285
in methanol, 323.15 K | 0.0321
